Test results taken from publication PMC8765320, “Identification of a Proteasome-Targeting Arylsulfonamide with Potential for the Treatment of Chagas’ Disease” (Antimicrobial Agents and Chemotherapy, 2022).
Like-named read-outs stand apart in the source and are kept apart here.

Assays:
T. cruzi epimastigotes = test: T. cruzi epimastigote drug sensitivity assay (resazurin); assay type: cell-based, Trypanosoma cruzi; details: for EC50: Trypanosoma cruzi; for susceptibility of CRISPR-edited epimastigotes: β4 F24L and I29M, at all of the concentrations tested
Procedure: To examine the effects of test compounds on the growth of T. cruzi epimastigotes, mid-log-phase parasites were seeded into 96-well plates at a cell density of 5 × 10^5 cells ml^−1. Cells were exposed to test compounds over a range of concentrations (2-fold serial dilutions). Cells were incubated for 4 days, and then 20 μl of 2.5 mM resazurin was added to each well, before measuring the fluorescence (excitation, 528 nm; emission, 590 nm), following a further 24 h of incubation. […] In this equation, [I] represents the inhibitor concentration, and m is the slope factor. Experiments were repeated at least two times, and the data are presented as means plus the standard deviations.

T. cruzi = details: cited from earlier work
[1] = test system: ubiquitinated proteins in T. cruzi epimastigotes; test: Accumulation of ubiquitinated proteins in treated epimastigotes (LC-MS/MS); assay type: cell-based, Trypanosoma cruzi; details: epimastigotes pretreated 8 h at 3× EC50 (methods: 8× EC50); one biological replicate
Procedure: In cells where the function of the proteasome has been compromised, there is a concomitant build-up of ubiquitinated proteins earmarked for degradation. […] Control cultures were treated for the same period of time in the presence of dimethyl sulfoxide (DMSO). Enrichment of ubiquitinated proteins was achieved by immunoprecipitation using magnetic beads conjugated to an antibody specific for the remnant of ubiquitinated lysines following digestion with trypsin and/or LysC. We used liquid chromatography-tandem mass spectrometry (LC-MS/MS) to calculate the ubiquitination ratio of each sample by dividing the reporter intensity of ubiquitinated proteins by the reporter intensity of total protein (see Table S8). As expected, the accumulation of ubiquitinylated proteins was highest in epimastigotes treated with bortezomib (2.7-fold higher than in the DMSO-treated control), which is known to inhibit all three catalytic activities of the proteasome (Fig. 3). […] Similarly, ubiquitinated proteins accumulated to levels 1.9-fold higher in compound 1-treated parasites compared to those recovered from DMSO-treated control cells.
Controls were incubated in the presence of diluent (DMSO). Cells were harvested by centrifugation (1,912 × g, 15 min, 4°C) and washed with ice-cold PBS (1,912 × g, 5 min, 4°C); finally, the cell pellets were resuspended in 1.5 ml of ice-cold lysis buffer (1 mM EDTA, 1 mM DTT, 100 μM TLCK, and 1× Roche EDTA-free cOmplete protease inhibitor cocktail in 50 mM potassium phosphate buffer [pH 7.4]). Cell suspensions were submitted to three freeze-thaw cycles in a dry ice/ethanol bath to biologically inactivate the parasites and then lysed using a OneShot cell disruptor (Constant Systems) at 30 kpsi.
Cell lysates were centrifuged (100,000 × g, 20 min, 4°C), supernatants were collected, and the protein concentrations were determined by using a standard Bio-Rad protein assay. […]

[2] = test system: T. cruzi amastigotes within Vero cells; test: Drug sensitivity assay against T. cruzi-infected Vero cells (intracellular amastigotes); assay type: cell-based, Trypanosoma cruzi; details: for EC50: Trypanosoma cruzi, Vero
Procedure: The clonal Leishmania donovani cell line LdBOB (derived from MHOM/SD/62/1S-CL2D) was grown as either promastigotes or axenic amastigotes in media specific for each developmental stage, as previously described ([32]). T. cruzi epimastigotes from the Silvio strain (MHOM/BR/78/Silvio; clone X10/7A [33]) were grown at 28°C in RTH/FBS (RPMI 1640 medium supplemented with Trypticase, hemin, HEPES, and 10% heat-inactivated fetal calf serum (FCS) [Fisher Scientific]) ([34]). Bloodstream form T. brucei “single marker” S427 (T7RPOL TETR NEO) were cultured in the presence of G418 (15 μg ml^−1) at 37°C in HMI9-T media in the presence of 5% CO2. HepG2 cells (ECACC 85011430) were obtained from European Collection of Authenticated Cell Culture (ECACC). Cells were maintained in full growth medium (minimal essential medium [MEM] with GlutaMAX (Thermo Fisher), supplemented with 1% MEM nonessential amino acids (Sigma) and 10% heat-inactivated FBS and cultured at 37°C in the presence of 5% CO2. Cells were passaged twice weekly by detaching adherent cells with 0.05% trypsin/EDTA (Sigma) and diluted into fresh media. Cells were never grown beyond 80% confluence. Vero cells (African green monkey kidney cells; ECCAC 84113001) were maintained at 37°C, 5% CO2 in Dulbecco modified Eagle medium (DMEM; Lonza) supplemented with 10% FCS and subcultured every 2 days. T. cruzi metacyclic trypomastigotes were obtained from late-log-phase epimastigote cultures (initial inoculum, 10^6 ml^−1) after ca. 7 to 10 days at 28°C in RTH/FBS. Trypomastigote-rich cultures were incubated with Vero cells overnight at 37°C and 5% CO2 in DMEM/10% FCS. The following day, extracellular parasites were removed by washing the Vero cell monolayer three times. Infected monolayers were maintained at 37°C and in 5% CO2, DMEM/10% FCS was replaced every 48 h until the trypomastigotes reemerged from the Vero cells ([9]).
Drug sensitivity assays against T. cruzi-infected Vero cells were carried out as previously described ([37]); however, in this instance, assays were carried out in 96-well plates. Data were processed using GRAFIT (Erithacus software) and fitted to a two-parameter equation, as described above.

Chagas' disease = details: cited from earlier work
[3] = cell line Wild type, read-out: Mean EC50 ± SD
[4] = read-out: Mean EC50 ± SD, cell line RES I (compound 1-resistant, β5 D225N)
[5] = read-out: Mean EC50 ± SD, cell line RES II (compound 1-resistant, β5 D225N)
[6] = read-out: Mean EC50 ± SD, cell line RES III (compound 1-resistant, β5 D225N)
[7] = read-out: Mean EC50 ± SD, cell line RES IV (compound 1-resistant, no proteasome mutation)
[8] = read-out: Mean EC50 ± SD, cell line RES V (compound 1-resistant, β4 I27T)
[9] = read-out: Mean EC50 ± SD, cell line Res I-β5 OE (β5 WT overexpressed in RES I)
[10] = read-out: Mean EC50 ± SD, cell line β4 F24L/I29M (CRISPR-edited)
[11] = read-out: Mean EC50 ± SD, cell line β5 D225N-OE (overexpressing mutated β5)
[12] = in Vero cells, cell line RES 1, read-out: EC50 values
[13] = in Vero cells, cell line RES 5, read-out: EC50 values
[14] = in Vero cells, cell line Wild-type, read-out: EC50 values
[15] = read-out: EC50 values, in Vero cells, cell line β4 F24L/I29M

SMILES	EC50 (T. cruzi epimastigotes; [3]) [µM]	EC50 (T. cruzi epimastigotes; [4]) [µM]	EC50 (T. cruzi epimastigotes; [5]) [µM]	EC50 (T. cruzi epimastigotes; [6]) [µM]	EC50 (T. cruzi epimastigotes; [7]) [µM]	EC50 (T. cruzi epimastigotes; [8]) [µM]	EC50 (T. cruzi epimastigotes; [9]) [µM]	EC50 (T. cruzi epimastigotes; [10]) [µM]	EC50 (T. cruzi epimastigotes; [11]) [µM]	fold change versus the WT (T. cruzi epimastigotes; cell line RES I) [fold]	fold change versus the WT (T. cruzi epimastigotes; cell line RES II) [fold]	fold change versus the WT (T. cruzi epimastigotes; cell line RES III) [fold]	fold change versus the WT (T. cruzi epimastigotes; cell line RES IV) [fold]	fold change versus the WT (T. cruzi epimastigotes; cell line RES V) [fold]	fold change versus the WT (T. cruzi epimastigotes; cell line Res I-β5 OE) [fold]	fold change versus the WT (T. cruzi epimastigotes; cell line β4 F24L/I29M) [fold]	fold change versus the WT (T. cruzi epimastigotes; cell line β5 D225N-OE) [fold]	susceptibility of CRISPR-edited epimastigotes (T. cruzi epimastigotes)	accumulation of ubiquitinated proteins versus DMSO-treated control [1] [fold]	EC50 [2, 12] [µM]	other results
O=C(Nc1ccc(F)c(-c2cn3nc(-c4ccccc4)cnc3n2)c1)N1CCCC1 [Compound 2]	0.04 ± 0.001	4 ± 0.08	5 ± 0.2	5 ± 0.4	0.1 ± 0.01	0.8 ± 0.03	0.3 ± 0.01	> 10	2 ± 0.1	100	125	125	2.5	20	6.5	> 250	58	refractory	–	–	–
Cc1nc(C)c(C(=O)Nc2ccc(F)c(-c3nc4ncc(-c5ccccn5)cn4n3)c2)o1 [GNF6702]	0.3 ± 0.02	> 10	> 10	> 10	> 10	10 ± 0.2	2 ± 0.3	> 10	> 10	–	–	–	–	–	–	–	–	refractory	1.45	16 ± 3	treated mice with no detectable parasites in blood, colon, or heart tissue (T. cruzi; 10 mg kg−1 twice daily, after 4 weeks of immunosuppression): All but one of the eight; efficacy in a mouse model of infection (T. cruzi; dosed twice daily at 10 mg kg−1): matched the efficacy of benznidazole; EC50 [2, 13]: 3 ± 0.4 µM; EC50 [2, 14]: 0.2 ± 0.03 µM; EC50 ([2]; in Vero cells, cell line β5 OE, read-out: EC50 values): 0.2 ± 0.1 µM; EC50 [2, 15]: > 1.5 µM; EC50 ([2]; read-out: EC50 values, in Vero cells, cell line β5 D225N-OE, (*) one biological replicate): > 5 µM
CC(C)C[C@H](NC(=O)[C@H](Cc1ccccc1)NC(=O)c1cnccn1)B(O)O [Bortezomib, bortezomib]	–	–	0.3 ± 0.01	–	0.6 ± 0.05	–	–	–	–	1	1	1	2.5	1	1	1	1	–	2.7	–	EC50 (T. cruzi epimastigotes; read-out: Mean EC50 ± SD, cell line Wild type): 0.2 ± 0.004 µM; cross-resistance against RES I to V clones (T. cruzi epimastigotes; compound 1-resistant clones RES I to V): no evidence of cross-resistance
O=C(Cn1ccnc1[N+](=O)[O-])NCc1ccccc1 [benznidazole]	–	–	–	–	–	–	–	–	–	–	–	–	–	–	–	–	–	–	–	–	outcome of modified treatment regimen in mouse models of infection (T. cruzi; higher doses given in pulses over prolonged periods): sterile parasitological cure; interruption or discontinuation of treatment due to severe toxic side effects (Chagas' disease): ≤ 30 % of cases; individuals cured (Chagas' disease; prolonged treatment during the acute stage): up to 70%
CC1CS(=O)(=O)CCN1/N=C/c1ccc([N+](=O)[O-])o1 (stereo not drawn) [nifurtimox]	–	–	–	–	–	–	–	–	–	–	–	–	–	–	–	–	–	–	–	–	individuals cured (Chagas' disease; in vivo): up to 70%
CSc1ccc(OCc2ncc([N+](=O)[O-])n2C)cc1 [Fexinidazole, fexinidazole]	–	–	–	–	–	–	–	–	–	–	–	–	–	–	–	–	–	–	–	8 ± 1	EC50 ([2]; in Vero cells, cell line ME OE, (*) one biological replicate, read-out: EC50 values): 5 ± 1 µM; EC50 [2, 13]: 4 ± 0.7 µM; EC50 [2, 14]: 4 ± 0.8 µM; EC50 ([2]; in Vero cells, cell line β5 OE rescue R1, (*) one biological replicate, read-out: EC50 values): 4 ± 0.6 µM; EC50 [2, 15]: 6 ± 0.6 µM; EC50 ([2]; read-out: EC50 values, in Vero cells, cell line β5 OE): 3 ± 0.3 µM; fold change versus WT ([2]; in Vero cells, cell line ME OE): 1 fold; fold change versus WT ([2]; in Vero cells, cell line RES 1): 2 fold; fold change versus WT ([2]; in Vero cells, cell line RES 5): 1 fold; fold change versus WT ([2]; in Vero cells, cell line Wild-type): 1 fold; fold change versus WT ([2]; in Vero cells, cell line β4 F24L/I29M): 2 fold; fold change versus WT ([2]; in Vero cells, cell line β5 D225N-OE): 1 fold; fold change versus WT ([2]; in Vero cells, cell line β5 OE): 1 fold; fold change versus WT ([2]; in Vero cells, cell line β5 OE rescue R1): 1 fold
